Test [1] concerns the target Ephrin type-A receptor 7 (Homo sapiens) (UniProt Q15375). The test can be described thus: Inhibition of wild-type human partial length EPHA7 (Y608 to S912 residues) expressed in bacterial expression system at 1 uM by Kinomescan method relative to control.
Test [2] relates to Phosphatidylinositol 4,5-bisphosphate 3-kinase catalytic subunit alpha isoform (Homo sapiens), P42336 [Q546K]. Description: Inhibition of human partial length PIK3CA Q546K mutant (R108 to N1068 residues) expressed in mammalian expression system at 1 uM by Kinomescan method relative to control.
Chain of Phosphatidylinositol 4,5-bisphosphate 3-kinase catalytic subunit alpha isoform (Homo sapiens), P42336 [Q546K] (P42336 whole entry Q546K, the tested form may be a part, canonical isoform): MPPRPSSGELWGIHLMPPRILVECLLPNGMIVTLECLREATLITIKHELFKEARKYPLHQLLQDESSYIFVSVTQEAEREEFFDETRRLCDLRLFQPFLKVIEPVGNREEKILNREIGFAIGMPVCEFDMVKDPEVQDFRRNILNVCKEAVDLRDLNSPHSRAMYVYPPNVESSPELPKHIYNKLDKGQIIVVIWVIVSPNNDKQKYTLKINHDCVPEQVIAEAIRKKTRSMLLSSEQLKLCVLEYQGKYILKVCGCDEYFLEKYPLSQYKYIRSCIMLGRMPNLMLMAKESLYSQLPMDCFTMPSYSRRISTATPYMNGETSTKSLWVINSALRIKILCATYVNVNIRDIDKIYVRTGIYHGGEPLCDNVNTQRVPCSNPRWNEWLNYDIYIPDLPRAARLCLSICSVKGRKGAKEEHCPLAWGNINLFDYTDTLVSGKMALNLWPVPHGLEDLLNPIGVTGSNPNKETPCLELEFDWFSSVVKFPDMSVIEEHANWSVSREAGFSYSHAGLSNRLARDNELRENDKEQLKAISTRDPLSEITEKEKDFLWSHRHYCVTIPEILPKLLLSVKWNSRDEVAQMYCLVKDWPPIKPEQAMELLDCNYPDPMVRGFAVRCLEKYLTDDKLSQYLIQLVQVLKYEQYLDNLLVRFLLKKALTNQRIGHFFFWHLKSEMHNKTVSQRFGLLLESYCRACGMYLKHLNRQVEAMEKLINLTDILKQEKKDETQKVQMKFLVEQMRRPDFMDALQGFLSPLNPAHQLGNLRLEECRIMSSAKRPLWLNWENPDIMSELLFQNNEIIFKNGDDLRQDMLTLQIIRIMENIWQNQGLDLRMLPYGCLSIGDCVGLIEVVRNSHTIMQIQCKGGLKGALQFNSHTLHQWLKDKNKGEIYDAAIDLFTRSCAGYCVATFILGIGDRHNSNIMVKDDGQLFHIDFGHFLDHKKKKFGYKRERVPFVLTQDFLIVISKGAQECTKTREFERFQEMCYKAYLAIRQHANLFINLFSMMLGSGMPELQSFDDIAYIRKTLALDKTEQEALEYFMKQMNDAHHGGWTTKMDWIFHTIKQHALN
The target in test [3] is Mast/stem cell growth factor receptor Kit (Homo sapiens) (UniProt P10721). The test can be described thus: Inhibition of wild-type human partial length autoinhibited KIT (Y545 to D952 residues) expressed in mammalian expression system at 1 uM by Kinomescan method relative to control.
Test [4] addresses Glycogen synthase kinase-3 beta (Homo sapiens) (UniProt P49841). Description: Inhibition of wild-type human full length GSK3B (M1 to T433 residues) expressed in mammalian expression system at 1 uM by Kinomescan method relative to control.
The target in test [5] is Serine/threonine-protein kinase PAK 1 (Homo sapiens) (UniProt Q13153). The test can be described thus: Inhibition of wild-type human partial length PAK1 (S149 to H545 residues) expressed in bacterial expression system at 1 uM by Kinomescan method relative to control.
Test [6] addresses Dual specificity mitogen-activated protein kinase kinase 5 (Homo sapiens) (UniProt Q13163). The test can be described thus: Inhibition of wild-type human partial length MEK5 (L98 to P448 residues) expressed in mammalian expression system at 1 uM by Kinomescan method relative to control.
Test [7] addresses RAF proto-oncogene serine/threonine-protein kinase (Homo sapiens) (UniProt P04049). Description: Inhibition of wild-type human partial length RAF1 (I330 to T640 residues) expressed in bacterial expression system at 1 uM by Kinomescan method relative to control.
Test [8] concerns the target Serine/threonine-protein kinase ICK (Homo sapiens) (UniProt Q9UPZ9). The test can be described thus: Inhibition of wild-type human partial length ICK (M1 to P314 residues) expressed in mammalian expression system at 1 uM by Kinomescan method relative to control.
Test [9] has as its target Mitogen-activated protein kinase kinase kinase 9 (Homo sapiens) (UniProt P80192). Description: Inhibition of wild-type human partial length MLK1 (V88 to W426 residues) expressed in bacterial expression system at 1 uM by Kinomescan method relative to control.
Test [10] concerns the target Mitogen-activated protein kinase kinase kinase 6 (Homo sapiens) (UniProt O95382). Description: Inhibition of wild-type human partial length ASK2 (M278 to R972 residues) expressed in mammalian expression system at 1 uM by Kinomescan method relative to control.
Test [11] has as its target Myotonin-protein kinase (Homo sapiens) (UniProt Q09013). The test can be described thus: Inhibition of wild-type human partial length DMPK (V47 to V415 residues) expressed in bacterial expression system at 1 uM by Kinomescan method relative to control.
The subject of test [12] is ALK tyrosine kinase receptor (Homo sapiens), Q9UM73 [L1196M]. Description: Inhibition of wild-type human partial length ALK L1196M mutant (I1088 to E1409 residues) expressed in mammalian expression system at 1 uM by Kinomescan method relative to control.
Test [13] concerns the target Interferon-induced, double-stranded RNA-activated protein kinase (Homo sapiens) (UniProt P19525). The test can be described thus: Inhibition of wild-type human partial length PRKR (F247 to C551 residues) expressed in bacterial expression system at 1 uM by Kinomescan method relative to control.
Test [14] has as its target Serine/threonine-protein kinase OSR1 (Homo sapiens) (UniProt O95747). Description: Inhibition of wild-type human full length OSR1 (M1 to S527 residues) expressed in mammalian expression system at 1 uM by Kinomescan method relative to control.
The target in test [15] is Ephrin type-B receptor 1 (Homo sapiens) (UniProt P54762). The test can be described thus: Inhibition of wild-type human partial length EPHB1 (P589 to T911 residues) expressed in bacterial expression system at 1 uM by Kinomescan method relative to control.
Test [16] has as its target Ephrin type-A receptor 6 (Homo sapiens) (UniProt Q9UF33). The test can be described thus: Inhibition of wild-type human partial length EPHA6 (Y700 to E1046 residues) expressed in bacterial expression system at 1 uM by Kinomescan method relative to control.
Test [17] has as its target Protein-tyrosine kinase 2-beta (Homo sapiens) (UniProt Q14289). Description: Inhibition of wild-type human full length PYK2 (M1 to E967 residues) expressed in bacterial expression system at 1 uM by Kinomescan method relative to control.
The target of test [18] is Tyrosine-protein kinase Fgr (Homo sapiens) (UniProt P09769). Description: Inhibition of wild-type human partial length FGR (L233 to T529 residues) expressed in bacterial expression system at 1 uM by Kinomescan method relative to control.
Test [19] addresses Proto-oncogene tyrosine-protein kinase Src (Homo sapiens) (UniProt P12931). The test can be described thus: Inhibition of wild-type human partial length SRC (L240 to L536 residues) expressed in bacterial expression system at 10 uM by Kinomescan method relative to control.
Test [20] addresses Ephrin type-A receptor 8 (Homo sapiens) (UniProt P29322). Description: Inhibition of wild-type human partial length EPHA8 (Q608 to C920 residues) expressed in bacterial expression system at 10 uM by Kinomescan method relative to control.
Test [21] concerns the target Cyclin-dependent kinase-like 2 (Homo sapiens) (UniProt Q92772). Description: Inhibition of wild-type human partial length CDKL2 (M1 to D327 residues) expressed in bacterial expression system at 10 uM by Kinomescan method relative to control.
Test [22] has as its target Ephrin type-A receptor 5 (Homo sapiens) (UniProt P54756). Description: Inhibition of wild-type human partial length EPHA5 (T627 to V930 residues) expressed in bacterial expression system at 10 uM by Kinomescan method relative to control.
Test [23] addresses Mitogen-activated protein kinase 12 (Homo sapiens) (UniProt P53778). Description: Inhibition of wild-type human full length p38-gamma (M1 to L367 residues) expressed in mammalian expression system at 10 uM by Kinomescan method relative to control.
Test [24] concerns the target Dual specificity testis-specific protein kinase 1 (Homo sapiens) (UniProt Q15569). The test can be described thus: Inhibition of wild-type human full length TESK1 (R37 to S626 residues) expressed in bacterial expression system at 10 uM by Kinomescan method relative to control.
The target of test [25] is Serine/threonine-protein kinase Nek2 (Homo sapiens) (UniProt P51955). Description: Inhibition of wild-type human partial length NEK2 (M1 to K309 residues) expressed in bacterial expression system at 10 uM by Kinomescan method relative to control.
Test [26] concerns the target Cyclin-dependent kinase 9 (Homo sapiens) (UniProt P50750). The test can be described thus: Inhibition of wild-type human full length CDK9 (M1 to F372 residues) expressed in bacterial expression system at 10 uM by Kinomescan method relative to control.
Test [27] has as its target Calcium/calmodulin-dependent protein kinase kinase 2 (Homo sapiens) (UniProt Q96RR4). Description: Inhibition of wild-type human partial length CAMKK2 (D65 to V471 residues) expressed in bacterial expression system at 10 uM by Kinomescan method relative to control.

SMILES strings stand for the structures.

Chain of Ephrin type-A receptor 7 (Homo sapiens) (Q15375 28-998 limits assumed): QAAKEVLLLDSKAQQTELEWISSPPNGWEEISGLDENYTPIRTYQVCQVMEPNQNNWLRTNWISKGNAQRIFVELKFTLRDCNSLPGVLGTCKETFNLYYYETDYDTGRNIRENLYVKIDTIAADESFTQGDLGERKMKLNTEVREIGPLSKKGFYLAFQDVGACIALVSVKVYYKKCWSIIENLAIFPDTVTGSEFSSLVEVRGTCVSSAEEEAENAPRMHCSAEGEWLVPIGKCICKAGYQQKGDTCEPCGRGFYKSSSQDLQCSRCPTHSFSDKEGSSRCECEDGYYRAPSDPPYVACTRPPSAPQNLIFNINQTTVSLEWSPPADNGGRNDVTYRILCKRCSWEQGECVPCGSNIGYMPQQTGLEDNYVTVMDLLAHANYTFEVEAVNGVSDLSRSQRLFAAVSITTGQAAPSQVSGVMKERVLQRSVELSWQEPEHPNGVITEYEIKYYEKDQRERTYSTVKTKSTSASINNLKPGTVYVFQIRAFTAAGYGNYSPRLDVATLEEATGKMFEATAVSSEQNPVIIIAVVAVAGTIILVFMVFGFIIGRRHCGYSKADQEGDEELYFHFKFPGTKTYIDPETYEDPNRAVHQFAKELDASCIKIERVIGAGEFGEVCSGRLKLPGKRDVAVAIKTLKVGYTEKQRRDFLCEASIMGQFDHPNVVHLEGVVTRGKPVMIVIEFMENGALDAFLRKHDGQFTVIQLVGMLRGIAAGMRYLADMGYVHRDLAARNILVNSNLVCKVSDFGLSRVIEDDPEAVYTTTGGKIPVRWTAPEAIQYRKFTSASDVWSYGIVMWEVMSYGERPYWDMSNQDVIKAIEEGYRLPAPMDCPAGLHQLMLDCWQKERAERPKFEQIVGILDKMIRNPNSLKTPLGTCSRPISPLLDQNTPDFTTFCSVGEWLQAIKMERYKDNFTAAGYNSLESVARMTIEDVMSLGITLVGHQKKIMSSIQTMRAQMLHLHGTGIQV
Chain of Proto-oncogene tyrosine-protein kinase Src (Homo sapiens) (P12931 2-536 limits assumed): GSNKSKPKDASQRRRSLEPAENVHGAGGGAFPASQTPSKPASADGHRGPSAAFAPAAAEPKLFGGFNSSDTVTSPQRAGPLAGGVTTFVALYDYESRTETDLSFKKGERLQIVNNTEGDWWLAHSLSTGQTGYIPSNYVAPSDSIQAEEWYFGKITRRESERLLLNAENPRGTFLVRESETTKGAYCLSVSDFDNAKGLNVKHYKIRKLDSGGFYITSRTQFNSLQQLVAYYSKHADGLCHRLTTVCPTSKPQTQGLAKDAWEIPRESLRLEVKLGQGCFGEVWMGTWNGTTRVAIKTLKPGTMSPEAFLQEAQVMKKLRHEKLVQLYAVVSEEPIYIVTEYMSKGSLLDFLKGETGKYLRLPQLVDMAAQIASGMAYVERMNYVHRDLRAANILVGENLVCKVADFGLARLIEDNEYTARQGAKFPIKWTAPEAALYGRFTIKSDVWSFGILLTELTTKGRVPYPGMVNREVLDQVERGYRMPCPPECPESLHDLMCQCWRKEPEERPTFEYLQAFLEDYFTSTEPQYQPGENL
Chain of Serine/threonine-protein kinase ICK (Homo sapiens) (Q9UPZ9 whole entry, the tested form may be a part): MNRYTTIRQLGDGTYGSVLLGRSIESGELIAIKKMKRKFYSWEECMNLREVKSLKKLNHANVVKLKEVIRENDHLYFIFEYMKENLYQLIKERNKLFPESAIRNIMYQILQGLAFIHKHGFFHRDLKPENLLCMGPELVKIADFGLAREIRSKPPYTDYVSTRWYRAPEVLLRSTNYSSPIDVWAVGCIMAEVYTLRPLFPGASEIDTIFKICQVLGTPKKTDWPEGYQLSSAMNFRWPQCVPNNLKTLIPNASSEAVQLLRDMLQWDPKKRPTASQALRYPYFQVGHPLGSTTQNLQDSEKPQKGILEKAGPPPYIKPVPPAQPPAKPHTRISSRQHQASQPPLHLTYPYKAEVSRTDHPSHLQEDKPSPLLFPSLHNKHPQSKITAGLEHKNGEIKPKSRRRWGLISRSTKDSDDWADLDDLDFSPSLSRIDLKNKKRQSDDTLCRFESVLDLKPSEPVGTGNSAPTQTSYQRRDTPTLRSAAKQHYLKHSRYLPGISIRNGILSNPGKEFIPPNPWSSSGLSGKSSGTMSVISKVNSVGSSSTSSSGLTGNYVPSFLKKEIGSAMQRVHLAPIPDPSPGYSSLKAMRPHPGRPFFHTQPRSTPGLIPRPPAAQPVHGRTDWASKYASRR
Chain of Ephrin type-A receptor 6 (Homo sapiens) (Q9UF33 whole entry, the tested form may be a part): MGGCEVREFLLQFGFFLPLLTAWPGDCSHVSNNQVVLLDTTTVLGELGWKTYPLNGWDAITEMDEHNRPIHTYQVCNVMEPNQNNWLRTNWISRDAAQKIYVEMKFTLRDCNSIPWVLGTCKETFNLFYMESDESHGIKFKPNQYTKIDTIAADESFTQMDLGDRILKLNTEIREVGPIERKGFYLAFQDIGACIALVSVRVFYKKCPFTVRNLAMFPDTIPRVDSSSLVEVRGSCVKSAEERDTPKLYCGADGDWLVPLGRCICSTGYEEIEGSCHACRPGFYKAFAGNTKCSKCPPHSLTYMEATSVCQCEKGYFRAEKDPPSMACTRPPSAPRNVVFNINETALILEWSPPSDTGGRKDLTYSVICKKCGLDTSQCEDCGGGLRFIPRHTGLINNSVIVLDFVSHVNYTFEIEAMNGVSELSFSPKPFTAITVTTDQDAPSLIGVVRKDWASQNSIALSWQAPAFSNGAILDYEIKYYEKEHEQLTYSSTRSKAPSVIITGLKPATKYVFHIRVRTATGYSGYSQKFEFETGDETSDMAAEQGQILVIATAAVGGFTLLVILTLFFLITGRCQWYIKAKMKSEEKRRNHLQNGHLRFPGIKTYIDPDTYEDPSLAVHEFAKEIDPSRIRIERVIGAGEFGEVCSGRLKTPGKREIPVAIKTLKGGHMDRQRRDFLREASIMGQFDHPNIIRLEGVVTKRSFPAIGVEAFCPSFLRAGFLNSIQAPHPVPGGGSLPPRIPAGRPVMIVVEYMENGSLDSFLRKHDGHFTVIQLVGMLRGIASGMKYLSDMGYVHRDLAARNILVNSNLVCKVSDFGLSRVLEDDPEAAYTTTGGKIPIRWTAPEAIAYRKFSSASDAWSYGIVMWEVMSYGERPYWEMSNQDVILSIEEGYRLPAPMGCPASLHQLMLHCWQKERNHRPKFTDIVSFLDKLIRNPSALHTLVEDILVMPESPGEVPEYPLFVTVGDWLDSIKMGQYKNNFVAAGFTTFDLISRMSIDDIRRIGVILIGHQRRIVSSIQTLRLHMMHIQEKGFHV
Chain of Myotonin-protein kinase (Homo sapiens) (Q09013 whole entry, the tested form may be a part): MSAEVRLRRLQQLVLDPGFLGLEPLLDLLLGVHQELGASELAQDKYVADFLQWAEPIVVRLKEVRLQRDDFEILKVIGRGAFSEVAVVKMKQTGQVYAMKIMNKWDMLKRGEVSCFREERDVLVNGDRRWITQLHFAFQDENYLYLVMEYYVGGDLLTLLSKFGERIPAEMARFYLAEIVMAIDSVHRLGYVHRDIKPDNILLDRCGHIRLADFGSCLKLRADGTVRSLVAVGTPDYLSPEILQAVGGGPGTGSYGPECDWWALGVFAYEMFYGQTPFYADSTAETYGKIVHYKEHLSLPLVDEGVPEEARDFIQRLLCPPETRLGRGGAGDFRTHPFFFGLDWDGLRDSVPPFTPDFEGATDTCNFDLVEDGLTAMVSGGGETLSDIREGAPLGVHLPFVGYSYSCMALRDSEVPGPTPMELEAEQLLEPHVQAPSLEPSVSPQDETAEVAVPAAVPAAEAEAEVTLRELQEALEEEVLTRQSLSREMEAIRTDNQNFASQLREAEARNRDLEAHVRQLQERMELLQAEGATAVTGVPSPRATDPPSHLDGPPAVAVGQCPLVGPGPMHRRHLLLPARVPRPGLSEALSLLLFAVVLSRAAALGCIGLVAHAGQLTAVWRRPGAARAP

With `O=C(Nc1cccc([C@@H]2CN(c3ncnc4[nH]ccc34)CCN2CCO)c1)Nc1c(F)cccc1N1CCCC1`, the inhibition in [1] was found to be 100%; in test [2] it was 89%; in test [3] it was 100%; in test [4], 83%; in test [5], 75%; in [6], 67%. For the same compound, the inhibition stood at 86% in test [7]; 100% in [8]; 86% in test [9]; 81% in test [10]; 100% in test [11]; 74% in test [12]. Further, the inhibition in test [13] was found to be 100%; in [14] it was 100%; in test [15], 97%; in test [16] it was 99%; in test [17], 84%; in [18] it was 77%.
For `O=C(Nc1cccc([C@H]2CCCN(c3ncnc4[nH]ccc34)C2)c1)Nc1ccccc1N1CCCC1`, the inhibition turned out to be 80% in test [19]; 40% in test [20]; 38% in test [21]; 97% in [22]; 68% in test [23]; 100% in test [24]. In addition, the inhibition in test [25] is 94%; in [26], 100%; in test [27], 92%.

(Values after ChEMBL document CHEMBL4387741, “Optimization of novel reversible Bruton's tyrosine kinase inhibitors identified using Tethering-fragment-based screens” (Bioorg Med Chem, 2019).)
